Measurements reported in article PMC9227781, “Inhibitors of O-Acetylserine Sulfhydrylase with a Cyclopropane-Carboxylic Acid Scaffold Are Effective Colistin Adjuvants in Gram Negative Bacteria” (Pharmaceuticals, 2022).

What was measured:
StOASS-A = target: T1, StOASS-A (Salmonella typhimurium, UniProt P0A1E3); assay: Fluorescence binding assay on purified recombinant StOASS-A; set-up: species or system S. Typhimurium; details: 20 °C, 100 mM HEPES, 5% DMSO, pH 7.0, racemic mixture, esters tested up to 100 μM
T1 construct: His-tag (with TEV site) (cleaved yes); made in house; host or cells: E. coli Rosetta (DE3)
Protocol: The affinity of the compounds for StOASS-A and StOASS-B was determined on the purified recombinant proteins by an in vitro fluorescence binding assay. Measurements were carried out at 20 °C in a 3 mm pathlength quartz microcuvette in 100 mM HEPES, 5% DMSO (Applichem, Darmstadt, Germany), pH 7.0, using a Fluoromax-4 (Horiba Jobin-Yvon, Kyoto, Japan) spectrofluorometer. Emission spectra of solutions containing 0.2–1.0 μM StOASS, upon excitation of the pyridoxal 5′-phosphate cofactor at 412 nm, in the presence of increasing concentrations of compounds were collected; fluorescence intensities at 500 nm were plotted to compound concentration and data were fitted to a binding isotherm: I=I0+ΔI·compound/KD+compound where I is the fluorescence emission intensity at 500 nm in the presence of a given concentration of compound, I0 is the initial fluorescence emission in the absence of ligands, ΔI is the amplitude of the fluorescence emission change and KD is the dissociation constant. When the KD was lower than the protein concentration, data were fitted to the quadratic equation: I=I0+ΔI·OASS+compound+KD−OASS+compound+KD^2−4·OASS·compound/2
Data were collected in duplicate.
Esters were tested up to a concentration of 100 μM and no binding was observed.

K. pneumoniae ATCC13883 = assay: MIC by broth microdilution, K. pneumoniae; type: cell-based, Klebsiella pneumoniae; details: Klebsiella pneumoniae, ATCC13883; compound alone, MHB, 24 h at 37 °C; read-out: MIC (μg/mL) K. pneumoniae ATCC13883
Protocol: (§1) MIC values were evaluated following CLSI guidelines with some modifications, as referred to in previous work. Twofold dilutions 25.6–0.05 mg/mL of the tested compounds were performed in DMSO in separate 96-well microtiter U-plates (Greiner, Milan, Italy). In a different 96-well microtiter U-plate, for each well of the replicates, 49 µL of broth medium were added. Then, in each well of the plate, one microliter of each compound at variable dilution in DMSO was added. For each test, three independent experiments with three replicates each were performed. Tested reference bacterial strains (E. coli ATCC25922; S. Typhimurium ATCC14028; K. pneumoniae ATCC13883) were brought to the logarithmic phase of growth in MHB medium by incubation at 37 °C for 24 h. After incubation, bacterial suspensions were centrifuged (2000 rpm, 4 °C for 20 min), and then the pellets were resuspended in 100 mM phosphate buffer, pH 7.0, to reach a final bacterial concentration of 10^8 CFU/mL, adjusted by spectrophotometry (OD620nm ranged between 0.08–0.13). The obtained suspensions were further diluted 1:100 in broth medium to reach a bacterial concentration of 10^6 CFU/mL. Fifty µL of the bacterial suspension containing 10^6 CFU/mL were inoculated into each well within 30 min, to obtain a final concentration of 5 × 10^5 CFU/mL in a total volume of 100 µL. The final dilution range tested was 256–0.5 µg/mL. Growth and sterility controls were performed for each strain and for each tested compound. Plates were then incubated for 24 h at 37 °C in a static aerobic atmosphere. After incubation, plates were read by unaided eye with a microtiter reading mirror and then the OD of each well of the plates was measured spectrophotometrically at 620 nm. MIC values were calculated as the arithmetic mean ± standard deviation (SD) of the unaided eye reading and the inhibition of growth for each tested dilution was calculated from the OD values (mean ± SD). A quality control microorganism (E. coli ATCC 25922) was tested periodically to validate the accuracy of the procedure.

MDBK cells = assay: Cytotoxicity assay (MTT) on MDBK cells; type: cell-based, bovine; details: 32, 16, 8 µg/mL; MTT test
Protocol: The cytotoxicity assay was performed using the 3-(4,5-dimethylthiazol-2-yl)-2,5-diphenyltetrazolium bromide (MTT) test, following the procedure used by Donofrio et al.. MDBK cells were cultured on microtiter tissue culture plates in DMEM medium for 24 h at 37 °C in the presence of 5% CO2. After incubation, when the cell monolayer was at confluence, an aliquot of 1 µL of UPAR415 in DMSO at different concentrations was added in each well, containing a volume of 100 µL of DMEM medium and MDBK cells, and then the plates were reincubated at the same conditions. After incubation, 10 µL of MTT at 200 mg/mL (3-(4,5-dimethylthiazol-2-yl)-2,5-diphenyltetrazolium bromide) was added to each well and incubated at 37 °C for 6 h. At the end of the incubation, 100 µL of the solubilization solution (10% SDS in 0.01 M HCl) was added to each well and then incubated overnight. The MTT compound, a yellow tetrazolium salt, is reduced by mitochondrial enzymes (succinate dehydrogenase) of metabolically active eukaryotic cells to insoluble formazan crystals. In the presence of metabolically active cells, after the addition of a detergent solution (10% SDS in […]) that allows the formazan to be released from the cells, a violet color is seen in the medium. Instead, in the presence of non-viable cells, MTT is not reduced to formazan and therefore the solution will remain yellow.
After incubation, plates were read with a spectrophotometer at 620 nm. Positive controls (PC)—without any compounds—and PCs with 1% DMSO were performed for each plate and three replicates for two independent experiments were performed for each assay.

E. coli ATCC 25922 = assay: MIC by broth microdilution, E. coli; type: cell-based, Escherichia coli; details: Escherichia coli, ATCC25922; compound alone, MHB, 24 h at 37 °C; read-out: MIC (μg/mL) E.coli ATCC 25922
Protocol: as §1

T1 sequence (P0A1E3 whole entry): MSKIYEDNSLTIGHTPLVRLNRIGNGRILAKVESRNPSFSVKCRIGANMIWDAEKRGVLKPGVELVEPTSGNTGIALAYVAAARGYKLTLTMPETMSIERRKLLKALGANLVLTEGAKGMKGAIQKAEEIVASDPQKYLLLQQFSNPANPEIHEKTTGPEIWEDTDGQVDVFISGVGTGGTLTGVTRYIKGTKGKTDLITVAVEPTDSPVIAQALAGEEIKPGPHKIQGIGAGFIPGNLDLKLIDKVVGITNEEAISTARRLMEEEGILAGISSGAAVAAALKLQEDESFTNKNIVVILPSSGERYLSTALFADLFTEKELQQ

Structure (SMILES) | KD (μM) OASS-A (StOASS-A) | Kd (StOASS-A; read-out: KD (μM) OASS-A) | MIC (K. pneumoniae ATCC13883) | Toxicity on viability of MDBK cells (MDBK cells) | MIC (E. coli ATCC 25922)
Cc1ccc(CC2(C(=O)O)CC2c2cccc(N3CC(C)OC(C)C3)c2)cc1 (stereo not drawn) [Compound 13h, trans-2-(3-(2,6-dimethylmorpholino)phenyl)-1-(4-methylbenzyl)cyclopropanecarboxylic acid] | most potent in vitro activity among the derivatives substituted with heteroaliphatic groups | 0.066 ± 0.005 µM | > 512 µg/mL | lowest toxicity profile | > 512 µg/mL
CCOC(=O)C1(Cc2ccc(C)cc2)CC1c1cccc(N2CC(C)OC(C)C2)c1 (stereo not drawn) [Compound 12h, trans-ethyl 2-(3-(2,6-dimethylmorpholino)phenyl)-1-(4-methylbenzyl)cyclopropanecarboxylate] | No binding |  | > 512 µg/mL | lowest toxicity profile | > 512 µg/mL
